Tests used:
[1] = storage stability (potency / % remaining after storage); format: physicochemical
[2] = cited from earlier work

Structure (SMILES)	% Remaining ([1]; 9 weeks at 50°C, in sealed glass vials) [%]	potency remaining ([1]; 28 days at 37°C) [%]	% Remaining ([1]; 28 days at 80% Relative Humidity, 37°C) [%]	potency ([1]; storage for 63 days at 30°C) [%]	solubility in water [2]
COc1cc(C2c3cc4c(cc3C(OC3OC5COC(C)OC5C(O)C3O)C3COC(=O)C23)OCO4)cc(OC)c1OP(=O)([O-])[O-].O.O.O.O.O.O.[Na+].[Na+] (centres unmarked) [hexahydrate, Etoposide 4'-Phosphate Disodium salt hexahydrate]	99.4	100	100.0	> 99	–
COc1cc([C@@H]2c3cc4c(cc3[C@@H](O[C@@H]3O[C@@H]5CO[C@@H](C)O[C@H]5[C@H](O)[C@H]3O)[C@H]3COC(=O)[C@H]23)OCO4)cc(OC)c1O [etoposide, Etoposide]	–	–	–	–	about 0.1 mg/ml

— patent EP0548834B1, “Stable hexahydrate of etoposide 4'-phosphate disodium salt” (Bristol-Myers Squibb Company, priority 1991, dated 1993)
